Results taken from patent publication US20100173873A1, “TREATMENT OF METASTASIZED TUMORS” (Novartis Vaccines and Diagnostics, Inc., priority 2005, published 2010).
Values joined by “and” are separate entries in the source; they are usually repeats but may differ in a detail not shown here. Identical values can stand only once. “Also recorded” adds a separate entry of the source. Like-named read-outs stand apart in the source and are kept apart here.

Experiments:
PI-3K = assay: In vitro kinase assay, PI-3K; format: biochemical; settings: RTK table
MV4;11 tumors [1] = assay: Subcutaneous MV4;11 xenograft model; format: in vivo, SCID-NOD mice
[2] = test system: MV4;11 cells disseminated to bone marrow; assay: Intravenous MV4;11 bone marrow engraftment model; format: in vivo, SCID-NOD mice
Protocol: For processing of bone marrow (BM) cells from the mouse MV4;11 engraftment model, femurs were purged with cold saline and red blood cells lysed with FACS lysis buffer (Becton Dickinson). Percent engraftment of human leukemic cells in mouse BM was determined by staining with anti-human HLA-A,B,C-FITC (vs. isotype-matched antibody-FITC control) (BD Pharmingen).
[…]. […] Mice were monitored daily and were euthanized when moribund or early signs of loss of hind limb motility. Increased life span (ILS) of treated mice was calculated as a percent increase in median survival time (MST) vs. vehicle treated control mice.
[…]. In this model, MV4;11 cells disseminate to the bone marrow (BM), pathologically mimicking a disease pattern similar to human leukemia. […]. Histological analyses and flow cytometry were used to quantify the % engraftment of MV4;11 cells in BM. In flow cytometric analyses, human MV4;11 cells were identified in mouse BM with an anti-human HLA-A,B,C antibody which binds to an epitope on human MHCI. In vehicle-treated mice, approximately 2-19% of total isolated BM cells consisted of engrafted MV4;11 cells (day 51,). This was also corroborated by immunohistochemistry with an antibody to human mitochondria which stains MV4;11 cells identifying the human cells in the mouse BM matrix. […].

RS4;11 tumors = assay: Subcutaneous RS4;11 xenograft model; format: in vivo, SCID-NOD mice; settings: RS4;11 s.c., 10-150 mg/kg/d p.o.
Protocol: . Animals received sterile rodent chow and water ad libitum and were housed in sterile filter-top cages with 12 hour light/dark cycles. All experiments were under the guidelines of the Association for Assessment and Accreditation of Laboratory Animal Care International.
Cells (5×10^6 cells/mouse) were reconstituted with 50% Matrigel (Becton Dickinson) and implanted s.c. into the right flank of SCID-NOD mice. Treatments were initiated when tumors were 200-1000 mm^3, as outlined in specific study designs. Mice were randomly assigned into cohorts (typically 10 mice/group for efficacy studies and 3-5 mice/group for pharmacodynamic (PD) studies). Compound 1 was administered as a solution via oral gavage. […] . […] Response rates were defined as complete responses CR (no palpable tumor) or partial responses PR (50-99% shrinkage) compared to tumor volume at treatment initiation.

MV4;11 tumors [3] = settings: 30 mg/kg/d
pSTAT5 in MV4;11 tumors = assay: Target modulation in vivo, pSTAT5 in MV4;11 tumors; settings: Mus musculus, MV4-11, po
4T1 murine breast tumor = 4T1 murine breast tumor model (primary tumor, liver and lung metastases); format: in vivo, BALB/c mice; settings: for Liver # of Metastases Mean ± SD / Lung # of Metastases Mean ± SD: after 17 days of dosing
[4] = MV4;11 s.c., 30 mg/kg/d p.o., dose-response study

## CN1CCN(c2ccc3nc(-c4c(N)c5c(F)cccc5[nH]c4=O)[nH]c3c2)CC1 [Compound 1, 4-Amino-5-fluoro-3-[6-(4-methylpiperazin-1-yl)-1H-benzimidazol-2-yl]quinolin-2(1H)-one]
PI-3K
  IC50: > 10 µM
MV4;11 tumors [1]; MV4;11 s.c., 30 mg/kg p.o. daily, schedule study (FIG. 4)
  Complete responses (CR): 1
MV4;11 tumors [1]; MV4;11 s.c., 30 mg/kg p.o., intermittent dosage regimens
  Tumor growth inhibition (TGI): > 94%
MV4;11 tumors [1]; [4]
  Complete responses (CR): 1
  Tumor responses: 9/10
MV4;11 tumors [1]; MV4;11 s.c., p.o., FIG. 2
  Doses with significant tumor growth inhibition: > 5 mg/kg/day
MV4;11 tumors [1]; large MV4;11 tumors 300, 500 or 1000 mm^3, 30 mg/kg/d, n=27
  Minor responses or stable: 15%
MV4;11 tumors [1]; large MV4;11 tumors, 30 mg/kg/d for 50 days
  Complete responses durable for 40 days after cessation of dosing: One CR
MV4;11 tumors [1]; tumors staged at 300, 500 or 1000 mm^3, 30 mg/kg/d
  Regression of large MV4;11 tumors: significant regression in all MV4;11 tumors; also recorded: induces regression of large MV4;11 tumors
[2]; 20 mg/kg daily or 7 days on/7 days off
  Survival (Kaplan-Meier, FIG. 6): prolongs survival
[2]; 20 mg/kg p.o. 7 days on/7 days off, 5 cycles
  Median survival time (MST): 118 days
[2]; 20 mg/kg p.o. 7 days on/7 days off, 5 cycles, vs. vehicle
  Increased life span (ILS): 131%
[2]; 20 mg/kg p.o. daily
  Long-term survivors (MST >160 days): 4 mice
[2]; 20 mg/kg p.o. daily, day 23-100
  Median survival time (MST): 134 days
[2]; day 167
  Tumor cells in BM of surviving mice (anti-human mitochondria IHC): no evidence of tumor cells
RS4;11 tumors
  Tumor regressions: no regressions were observed
MV4;11 tumors [3]; 5-day dosing period
  Phospho-ERK immunohistochemical staining: significantly lowered
MV4;11 tumors [3]; after 5 doses
  Ki67 staining (proliferation): reduced Ki67 staining
MV4;11 tumors [3]; day 5
  Apoptosis (activated caspase-3, cleaved PARP staining): increased activated caspase-3 and cleaved PARP staining
pSTAT5 in MV4;11 tumors; 8 h, read-out: Inhibition of STAT5 phosphorylation in tumors
  inhibition at 10 mg/kg: ~90%
pSTAT5 in MV4;11 tumors; 24 h, read-out: Inhibition of STAT5 phosphorylation in tumors
  inhibition at 10 mg/kg: ~85%
pSTAT5 in MV4;11 tumors; 48 h, read-out: Inhibition of p-STAT5 in tumors
  inhibition at 10 mg/kg: ~60%
4T1 murine breast tumor; 10 mg/kg p.o. once daily
  Mean Tumor Volume day 18: 1798 mm^3
  Treated/Control day 18: 0.80
4T1 murine breast tumor; 10 mg/kg p.o. once daily, d 11
  Max % Inhibition (study day), primary tumor growth: 32% and 32 (d 11) %
4T1 murine breast tumor; 10 mg/kg
  Liver # of Metastases Mean ± SD: 22 ± 32
  Lung # of Metastases Mean ± SD: 36 ± 32
4T1 murine breast tumor; 30 mg/kg p.o. once daily
  Mean Tumor Volume day 18: 1246 mm^3
  Treated/Control day 18: 0.55
4T1 murine breast tumor; 30 mg/kg p.o. once daily, d 18
  Max % Inhibition (study day), primary tumor growth: 45% and 45 (d 18) %
4T1 murine breast tumor; 30 mg/kg
  Liver # of Metastases Mean ± SD: 3 ± 4
  Lung # of Metastases Mean ± SD: 26 ± 26
4T1 murine breast tumor; 60 mg/kg p.o. once daily
  Mean Tumor Volume day 18: 1248 mm^3
  Treated/Control day 18: 0.56
4T1 murine breast tumor; 60 mg/kg p.o. once daily, d 11
  Max % Inhibition (study day), primary tumor growth: 50% and 50 (d 11) %
4T1 murine breast tumor; 60 mg/kg
  Liver # of Metastases Mean ± SD: 1 ± 1
  Lung # of Metastases Mean ± SD: 24 ± 11
4T1 murine breast tumor; 100 mg/kg p.o. once daily
  Mean Tumor Volume day 18: 624 mm^3
  Treated/Control day 18: 0.28
4T1 murine breast tumor; 100 mg/kg p.o. once daily, d 14
  Max % Inhibition (study day), primary tumor growth: 74% and 74 (d 14) %
4T1 murine breast tumor; 100 mg/kg
  Liver # of Metastases Mean ± SD: 4 ± 13
  Lung # of Metastases Mean ± SD: 24 ± 30
4T1 murine breast tumor; 150 mg/kg p.o. once daily
  Mean Tumor Volume day 18: 402 mm^3
  Treated/Control day 18: 0.18
4T1 murine breast tumor; 150 mg/kg p.o. once daily, d 18
  Max % Inhibition (study day), primary tumor growth: 82% and 82 (d 18) %
4T1 murine breast tumor; 150 mg/kg
  Liver # of Metastases Mean ± SD: 0 ± 0
  Lung # of Metastases Mean ± SD: 2 ± 3
4T1 murine breast tumor; 30, 60 and 100 mg/kg treatments
  Reduction of number of liver tumor nodules versus controls: ≥ 77%
